Test results from patent publication US8691865B2 (AbbVie Inc., priority 2008, dated 2014).
Where two headings read alike, the source gives them in different places.

Biological target: human Cav2.2 (Homo sapiens, UniProt Q00975)
Assay: Assessment of calcium channel activity using FLIPR (Ca2+ influx in IMR32 cells)
Type: cell-based
Method in brief: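 IC50 values derive from nonlinear sigmoidal fitting of percent inhibition, relative to inhibitor-free activity, of Ca2+ influx read by FLIPR. Cells were IMR32 human neuroblastoma, plated at 1−1.2×10^5 per well and grown 48 h at 37 °C.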

[1] = read-out: IC50 (μM) or percent inhibition (* indicates 3 minute incubation, otherwise 60 minute), IC50, 60 minute pre-incubation with compound, IMR32 cells, 80 mM KCl depolarization

Sequence of human Cav2.2 (Q00975 whole entry): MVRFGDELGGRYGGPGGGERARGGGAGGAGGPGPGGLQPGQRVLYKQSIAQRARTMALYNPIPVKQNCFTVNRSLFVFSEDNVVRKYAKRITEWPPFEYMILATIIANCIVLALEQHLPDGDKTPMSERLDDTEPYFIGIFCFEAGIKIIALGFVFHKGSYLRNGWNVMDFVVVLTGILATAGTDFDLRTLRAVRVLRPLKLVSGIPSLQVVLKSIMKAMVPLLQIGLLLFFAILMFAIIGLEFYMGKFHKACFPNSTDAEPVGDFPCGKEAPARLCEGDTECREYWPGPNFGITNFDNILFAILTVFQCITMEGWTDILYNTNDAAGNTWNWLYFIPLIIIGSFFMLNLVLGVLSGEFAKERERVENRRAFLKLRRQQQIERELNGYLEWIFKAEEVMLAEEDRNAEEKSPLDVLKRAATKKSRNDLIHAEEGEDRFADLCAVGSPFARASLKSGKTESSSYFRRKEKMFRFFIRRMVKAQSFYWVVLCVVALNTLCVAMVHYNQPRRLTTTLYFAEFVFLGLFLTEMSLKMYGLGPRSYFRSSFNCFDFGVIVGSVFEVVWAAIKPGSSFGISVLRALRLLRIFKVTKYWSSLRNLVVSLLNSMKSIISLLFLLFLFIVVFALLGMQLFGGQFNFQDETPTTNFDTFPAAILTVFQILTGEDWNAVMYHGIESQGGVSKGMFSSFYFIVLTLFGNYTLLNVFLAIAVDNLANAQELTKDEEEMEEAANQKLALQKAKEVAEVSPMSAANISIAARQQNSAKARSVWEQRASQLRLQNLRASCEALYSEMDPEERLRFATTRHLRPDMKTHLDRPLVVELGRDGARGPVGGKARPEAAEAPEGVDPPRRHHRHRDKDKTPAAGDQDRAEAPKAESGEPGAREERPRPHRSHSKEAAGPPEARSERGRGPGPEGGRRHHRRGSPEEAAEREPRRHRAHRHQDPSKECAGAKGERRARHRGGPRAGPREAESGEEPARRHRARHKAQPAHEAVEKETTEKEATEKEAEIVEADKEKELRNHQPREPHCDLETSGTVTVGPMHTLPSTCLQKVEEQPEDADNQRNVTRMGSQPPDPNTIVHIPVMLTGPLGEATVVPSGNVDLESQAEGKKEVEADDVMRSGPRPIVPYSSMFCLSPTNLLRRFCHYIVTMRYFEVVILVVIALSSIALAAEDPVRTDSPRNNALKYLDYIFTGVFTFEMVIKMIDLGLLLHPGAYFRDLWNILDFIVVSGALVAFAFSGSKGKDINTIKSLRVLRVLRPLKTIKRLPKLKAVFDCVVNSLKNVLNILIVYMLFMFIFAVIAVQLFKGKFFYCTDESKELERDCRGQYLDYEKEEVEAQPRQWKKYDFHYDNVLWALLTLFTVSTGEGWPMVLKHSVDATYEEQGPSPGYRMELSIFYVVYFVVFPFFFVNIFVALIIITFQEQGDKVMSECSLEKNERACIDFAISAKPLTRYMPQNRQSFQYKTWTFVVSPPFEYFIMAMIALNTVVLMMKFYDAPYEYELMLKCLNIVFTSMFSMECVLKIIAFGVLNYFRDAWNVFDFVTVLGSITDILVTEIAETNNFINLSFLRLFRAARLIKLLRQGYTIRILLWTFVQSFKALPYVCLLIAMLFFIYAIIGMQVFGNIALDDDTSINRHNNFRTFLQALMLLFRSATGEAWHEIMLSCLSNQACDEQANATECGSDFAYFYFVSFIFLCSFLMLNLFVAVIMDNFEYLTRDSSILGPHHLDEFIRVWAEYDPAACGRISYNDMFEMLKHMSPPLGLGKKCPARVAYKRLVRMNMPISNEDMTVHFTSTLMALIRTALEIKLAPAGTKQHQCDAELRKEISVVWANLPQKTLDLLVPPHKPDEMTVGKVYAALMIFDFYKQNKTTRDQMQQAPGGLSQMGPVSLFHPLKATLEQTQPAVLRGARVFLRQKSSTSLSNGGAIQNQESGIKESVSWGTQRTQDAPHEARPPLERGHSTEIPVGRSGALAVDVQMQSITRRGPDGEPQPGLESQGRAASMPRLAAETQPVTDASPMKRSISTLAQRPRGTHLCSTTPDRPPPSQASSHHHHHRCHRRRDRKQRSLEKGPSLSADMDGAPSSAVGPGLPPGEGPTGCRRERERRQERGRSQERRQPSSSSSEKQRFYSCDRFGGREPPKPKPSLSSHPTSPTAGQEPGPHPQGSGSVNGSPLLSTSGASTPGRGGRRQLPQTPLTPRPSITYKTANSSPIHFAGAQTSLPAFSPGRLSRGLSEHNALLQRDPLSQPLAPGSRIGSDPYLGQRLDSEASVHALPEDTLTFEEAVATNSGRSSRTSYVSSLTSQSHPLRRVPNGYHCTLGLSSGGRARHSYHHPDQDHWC
Sequence of human Cav2.2 (P54289 25-956 partner limits assumed): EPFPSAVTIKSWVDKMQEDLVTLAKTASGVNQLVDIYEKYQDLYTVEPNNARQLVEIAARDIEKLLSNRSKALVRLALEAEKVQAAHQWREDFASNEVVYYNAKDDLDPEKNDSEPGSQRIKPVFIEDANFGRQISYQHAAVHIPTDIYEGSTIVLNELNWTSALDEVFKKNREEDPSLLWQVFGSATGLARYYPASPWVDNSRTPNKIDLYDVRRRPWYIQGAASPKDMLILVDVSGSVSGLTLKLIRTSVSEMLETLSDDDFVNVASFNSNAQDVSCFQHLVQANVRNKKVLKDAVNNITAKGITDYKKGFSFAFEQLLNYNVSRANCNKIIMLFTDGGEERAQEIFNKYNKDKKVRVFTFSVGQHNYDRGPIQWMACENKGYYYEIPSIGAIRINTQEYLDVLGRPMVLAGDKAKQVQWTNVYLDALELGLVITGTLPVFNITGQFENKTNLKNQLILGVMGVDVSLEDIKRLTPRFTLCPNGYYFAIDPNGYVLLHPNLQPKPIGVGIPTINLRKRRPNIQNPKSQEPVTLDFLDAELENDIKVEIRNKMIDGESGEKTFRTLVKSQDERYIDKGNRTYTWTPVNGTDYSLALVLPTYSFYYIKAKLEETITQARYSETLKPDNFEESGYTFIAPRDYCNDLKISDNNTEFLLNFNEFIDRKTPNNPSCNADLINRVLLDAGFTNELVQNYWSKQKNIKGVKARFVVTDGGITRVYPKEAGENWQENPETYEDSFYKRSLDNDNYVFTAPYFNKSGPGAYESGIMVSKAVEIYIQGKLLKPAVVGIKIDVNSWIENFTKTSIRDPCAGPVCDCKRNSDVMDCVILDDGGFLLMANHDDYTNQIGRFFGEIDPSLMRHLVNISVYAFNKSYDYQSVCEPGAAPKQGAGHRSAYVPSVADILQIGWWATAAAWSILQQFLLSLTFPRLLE
Sequence of human Cav2.2 (P54289 957-1103 partner limits assumed): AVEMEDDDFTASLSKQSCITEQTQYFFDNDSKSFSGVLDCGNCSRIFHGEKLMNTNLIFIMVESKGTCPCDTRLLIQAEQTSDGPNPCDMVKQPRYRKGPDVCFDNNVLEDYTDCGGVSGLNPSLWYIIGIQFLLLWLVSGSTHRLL
Sequence of human Cav2.2 (P54284 whole entry partner): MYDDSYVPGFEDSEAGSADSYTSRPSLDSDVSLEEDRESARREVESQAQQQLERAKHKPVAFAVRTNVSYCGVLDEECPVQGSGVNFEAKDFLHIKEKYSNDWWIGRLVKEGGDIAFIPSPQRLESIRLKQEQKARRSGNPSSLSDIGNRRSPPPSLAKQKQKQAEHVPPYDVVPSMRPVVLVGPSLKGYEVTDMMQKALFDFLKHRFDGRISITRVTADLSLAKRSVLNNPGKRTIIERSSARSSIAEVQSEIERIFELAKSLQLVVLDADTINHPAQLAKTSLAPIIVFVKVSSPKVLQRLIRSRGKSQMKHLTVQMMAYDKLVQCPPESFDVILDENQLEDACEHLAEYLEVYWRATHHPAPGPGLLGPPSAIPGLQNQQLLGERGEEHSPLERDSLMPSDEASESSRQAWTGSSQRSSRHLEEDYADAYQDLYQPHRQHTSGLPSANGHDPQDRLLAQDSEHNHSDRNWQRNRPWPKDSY

SMILES | IC50 [µM] | IC50 [1] [µM]
CC(C)N[C@@H](CC(C)(C)C)C(=O)N[C@H]1CC[C@@H]2CN(C(=O)[C@H](Cc3ccccc3)NC(C)C)C[C@@H]21 [Example 489, N^2-isopropyl-N^1-[(3aR,4S,6aS)-2-(N-isopropyl-L-phenylalanyl)octahydrocyclopenta[c]pyrrol-4-yl]-4-methyl-L-leucinamide] | 15.7 | 
CN[C@@H](CC(C)C)C(=O)N[C@H]1CC[C@@H]2CN(c3ccccc3C(F)F)C[C@@H]21 [Example 771, N-{(3aR,4S,6aS)-2-[2-(difluoromethyl)phenyl]octahydrocyclopenta[c]pyrrol-4-yl}-N^2-methyl-L-leucinamide] | 2.9 | 
CCC[C@@H](C(=O)N[C@@H]1CC[C@H]2CN(Cc3ccccc3)C[C@H]21)N(C)C(=O)OC(C)(C)C [Example 233, tert-butyl(S)-1-((3aS,4R,6aR)-2-benzyloctahydrocyclopenta[c]pyrrol-4-ylamino)-1-oxopentan-2-yl(methyl)carbamate] |  | 2.8
O=C(N[C@@H]1CC[C@H]2CN(Cc3ccccc3)C[C@H]21)[C@@H]1CCCCN1 [Example 350, (2S)-N-[(3aS,4R,6aR)-2-benzyloctahydrocyclopenta[c]pyrrol-4-yl]piperidine-2-carboxamide] | > 30 | 
CN[C@@H](CC(C)C)C(=O)N[C@H]1CC[C@@H]2CN(c3ccccc3C)C[C@@H]21 [Example 630, N^2-methyl-N-[(3aR,4S,6aS)-2-(2-methylphenyl)octahydrocyclopenta[c]pyrrol-4-yl]-L-leucinamide] | 3.34 | 
CN[C@H](CC(C)C)C(=O)N[C@H]1CC[C@@H]2CN(c3ccc(C(F)(F)F)cc3)C[C@@H]21 [Example 760, N^2-methyl-N-{(3aR,4S,6aS)-2-[4-(trifluoromethyl)phenyl]octahydrocyclopenta[c]pyrrol-4-yl}-D-leucinamide] | 2.32 | 
O=C(N[C@H]1CC[C@@H]2CN(c3ccc(F)cc3C(F)(F)F)C[C@@H]21)[C@@H]1C[C@@H](F)CN1 [Example 698, (4R)-4-fluoro-N-{(3aR,4S,6aS)-2-[4-fluoro-2-(trifluoromethyl)phenyl]octahydrocyclopenta[c]pyrrol-4-yl}-L-prolinamide] | 1.52 | 
CN[C@@H](CC(C)C)C(=O)N[C@H]1CC[C@@H]2CN(c3cc(F)ccc3C(F)F)C[C@@H]21 [Example 770, N-{(3aR,4S,6aS)-2-[2-(difluoromethyl)-5-fluorophenyl]octahydrocyclopenta[c]pyrrol-4-yl}-N^2-methyl-L-leucinamide] | 0.75 | 
O=C(N[C@H]1CC[C@@H]2CN(c3cccc(C(F)(F)F)n3)C[C@@H]21)c1ccc(-c2cccs2)o1 [Example 571, 5-(2-thienyl)-N-{(3aR,4S,6aS)-2-[6-(trifluoromethyl)pyridin-2-yl]octahydrocyclopenta[c]pyrrol-4-yl}-2-furamide] | 1.11 | 
FC(F)(F)c1cccc(N2C[C@H]3CC[C@H](NCc4ncc[nH]4)[C@H]3C2)n1 [Example 675, (3aR,4S,6aS)-N-(1H-imidazol-2-ylmethyl)-2-[6-(trifluoromethyl)pyridin-2-yl]octahydrocyclopenta[c]pyrrol-4-amine] | 2.22 | 
O=C(N[C@H]1CC[C@H]2CN(Cc3cccc(C(F)(F)F)c3)C[C@H]21)C(c1ccc(F)cc1)c1ccc(F)cc1 (relative stereo) [Example 136, 2,2-bis(4-fluorophenyl)-N-{(3aS*,4S*,6aR*)-2-[3-(trifluoromethyl)benzyl]octahydrocyclopenta[c]pyrrol-4-yl}acetamide] | 0.64 | 
CN[C@@H](CC(C)C)C(=O)N[C@H]1CC[C@@H]2CN(c3ccc(C)cc3)C[C@@H]21 [Example 648, N^2-methyl-N-[(3aR,4S,6aS)-2-(4-methylphenyl)octahydrocyclopenta[c]pyrrol-4-yl]-L-leucinamide] | 3.55 | 
O=C(N[C@H]1CC[C@@H]2CN(c3ccc(C(F)(F)F)cc3)C[C@@H]21)[C@@H]1C[C@@H](F)CN1 [Example 781, (4R)-4-fluoro-N-{(3aR,4S,6aS)-2-[4-(trifluoromethyl)phenyl]octahydrocyclopenta[c]pyrrol-4-yl}-L-prolinamide] | 8.26 | 
O=C(N[C@@H]1CC[C@H]2CN(Cc3ccc(F)cc3)C[C@H]21)[C@@H]1CCCCN1 [Example 368, (2S)-N-[(3aS,4R,6aR)-2-(4-fluorobenzyl)octahydrocyclopenta[c]pyrrol-4-yl]piperidine-2-carboxamide] |  | 12.4
CC(C)N[C@@H](CC1CCCCC1)C(=O)N[C@H]1CC[C@@H]2CN(S(=O)(=O)c3ccc(C(F)(F)F)cc3)C[C@@H]21 [Example 485, 3-cyclohexyl-N^2-isopropyl-N^1-((3aR,4S,6aS)-2-{[4-(trifluoromethyl)phenyl]sulfonyl}octahydrocyclopenta[c]pyrrol-4-yl)-L-alaninamide] |  | 1.49
CC(C)C[C@@H](C(=O)N[C@@H]1CC[C@H]2CN(Cc3ccccc3)C[C@H]21)N(C)S(C)(=O)=O [Example 168, N^1-[(3aS,4R,6aR)-2-benzyloctahydrocyclopenta[c]pyrrol-4-yl]-N^2-methyl-N^2-(methylsulfonyl)-L-leucinamide] |  | 12.9

SMILES | IC50 [µM] | IC50 [1] [µM]
Cc1c[nH]c(CN[C@H]2CC[C@@H]3CN(c4cccc(C(F)(F)F)n4)C[C@@H]32)n1 [Example 670, (3aR,4S,6aS)-N-[(4-methyl-1H-imidazol-2-yl)methyl]-2-[6-(trifluoromethyl)pyridin-2-yl]octahydrocyclopenta[c]pyrrol-4-amine] | 1.17 | 
CC[C@H](NC(C)C)C(=O)N[C@H]1CC[C@@H]2CN(c3ccc(C(F)(F)F)cc3)C[C@@H]21 [Example 762, (2S)-2-(isopropylamino)-N-{(3aR,4S,6aS)-2-[4-(trifluoromethyl)phenyl]octahydrocyclopenta[c]pyrrol-4-yl}butanamide] | 5.11 | 
CC(C)C[C@@H](N)C(=O)N[C@@H]1CC[C@@H]2CN(Cc3cccc(C(F)(F)F)c3)C[C@@H]21 (stereo in doubt) [Example 159, N^1-{(3aR*,4R*,6aS*)-2-[3-(trifluoromethyl)benzyl]octahydrocyclopenta[c]pyrrol-4-yl}-D-leucinamide] |  | 5.55
COc1cccc2[nH]cc(CN[C@H]3CC[C@@H]4CN(c5cccc(C(F)(F)F)n5)C[C@@H]43)c12 [Example 689, (3aR,4S,6aS)-N-[(4-methoxy-1H-indol-3-yl)methyl]-2-[6-(trifluoromethyl)pyridin-2-yl]octahydrocyclopenta[c]pyrrol-4-amine] | 0.82 | 
Fc1ccc(-c2nc(CN[C@H]3CC[C@@H]4CN(c5cccc(C(F)(F)F)n5)C[C@@H]43)co2)cc1 [Example 743, (3aR,4S,6aS)-N-{[2-(4-fluorophenyl)-1,3-oxazol-4-yl]methyl}-2-[6-(trifluoromethyl)pyridin-2-yl]octahydrocyclopenta[c]pyrrol-4-amine] | 1 | 
O=C(N[C@@H]1CC[C@H]2CN(CCC(c3ccccc3)c3ccccc3)C[C@H]21)C(C1CCCCC1)C1CCCCC1 [Example 79, 2,2-dicyclohexyl-N-[(3aS,4R,6aR)-2-(3,3-diphenylpropyl)octahydrocyclopenta[c]pyrrol-4-yl]acetamide] |  | 0.94
O=C(N[C@H]1CC[C@H]2CN(Cc3cccnc3)C[C@H]21)C(C1CCCCC1)C1CCCCC1 [Example 73, 2,2-dicyclohexyl-N-[(3aS,4S,6aR)-2-(pyridin-3-ylmethyl)octahydrocyclopenta[c]pyrrol-4-yl]acetamide] |  | 3.26
O=C(N[C@H]1CC[C@H]2CN(Cc3ccc(C(F)(F)F)c(F)c3)C[C@H]21)C(C1CCCCC1)C1CCCCC1 [Example 58, 2,2-dicyclohexyl-N-{(3aS,4S,6aR)-2-[3-fluoro-4-(trifluoromethyl)benzyl]octahydrocyclopenta[c]pyrrol-4-yl}acetamide] |  | 1.35
CN[C@@H](CC(C)C)C(=O)N[C@H]1CC[C@@H]2CN(c3ccc(F)c(C(F)F)c3)C[C@@H]21 [Example 769, N-{(3aR,4S,6aS)-2-[3-(difluoromethyl)-4-fluorophenyl]octahydrocyclopenta[c]pyrrol-4-yl}-N^2-methyl-L-leucinamide] | 1.13 | 
CN[C@@H](CC(C)(C)C)C(=O)N(C)[C@H]1CC[C@@H]2CN(S(=O)(=O)c3ccc(C(F)(F)F)cc3Cl)C[C@@H]21 [Example 439, N^1-((3aR,4S,6aS)-2-{[2-chloro-4-(trifluoromethyl)phenyl]sulfonyl}octahydrocyclopenta[c]pyrrol-4-yl)-N^1,N^2,4-trimethyl-L-leucinamide] |  | 1.42
O=S(=O)(N[C@H]1CC[C@@H]2CN(c3cccc(C(F)(F)F)n3)C[C@@H]21)c1ccccc1F [Example 703, 2-fluoro-N-{(3aR,4S,6aS)-2-[6-(trifluoromethyl)pyridin-2-yl]octahydrocyclopenta[c]pyrrol-4-yl}benzenesulfonamide] | 3.17 | 
O=C(N[C@H]1CC[C@@H]2CN(c3ccc(C(F)(F)F)cn3)C[C@@H]21)[C@@H]1Cc2ccccc2N1 [Example 604, (2S)-N-{(3aR,4S,6aS)-2-[5-(trifluoromethyl)pyridin-2-yl]octahydrocyclopenta[c]pyrrol-4-yl}indoline-2-carboxamide] | 2.78 | 
O=C(N[C@H]1CC[C@H]2CN(Cc3ccc(F)cc3)C[C@H]21)C(C1CCCCC1)C1CCCCC1 [Example 56, 2,2-dicyclohexyl-N-[(3aS,4S,6aR)-2-(4-fluorobenzyl)octahydrocyclopenta[c]pyrrol-4-yl]acetamide] | 0.74 | 
CCC[C@H](NC)C(=O)N[C@H]1CC[C@@H]2CN(S(=O)(=O)c3ccc(OC(F)(F)F)cc3)C[C@@H]21 [Example 532, N^2-methyl-N^1-((3aR,4S,6aS)-2-{[4-(trifluoromethoxy)phenyl]sulfonyl}octahydrocyclopenta[c]pyrrol-4-yl)-L-norvalinamide] | 3.16 | 
O=C(N[C@H]1CC[C@H]2CN(Cc3ccccc3)C[C@H]21)C(C1CCCCC1)C1CCCCC1 [Example 15, N-[(3aS,4S,6aR)-2-benzyloctahydrocyclopenta[c]pyrrol-4-yl]-2,2-dicyclohexylacetamide] |  | 16.5
